Earlier results, collected in patent US20050255458A1, “Drug discovery assays based on the biology of chronic disease” (priority 2002, published 2005).
Like-named read-outs stand apart in the source and are kept apart here.

What was measured:
ERK1 and ERK2 = conditions: 20 μm, 15 min; cited from earlier work
NF-κB = conditions: cited from earlier work
DC = conditions: inhaled; cited from earlier work
[1] = system: ‘Langerhans’ cells in nasal mucosa; conditions: topical; cited from earlier work
ERK1/2 = conditions: cited studies, various cells; cited from earlier work
[2] = system: third intron enhancer of the TNFα gene; conditions: PBMC stimulated with TPA; cited from earlier work
[3] = system: ML-1 human myeloblastic leukemic cells; conditions: cited from earlier work; for increase in ERK activity: 0.3 ng/ml
ERK [4] = conditions: cited from earlier work
ERK [5] = conditions: LNCaP; cited from earlier work
AR gene [6] = conditions: cited from earlier work
anagen hair follicles = conditions: cited from earlier work
[7] = 0.3-0.5 mmol/kg/day, from day 56; cited from earlier work
[8] = system: Moloney murine leukemia virus (MMuLV); conditions: cited from earlier work
Rous sarcoma virus (RSV) = conditions: cited from earlier work
TF = conditions: cited from earlier work
AR gene [9] = conditions: 50 μg/ml, 4 hours, 21-day-old rats; cited from earlier work
TF antigen = conditions: cited from earlier work
ACE [10] = biological target: T1, ACE (Mus musculus, UniProt P09470); conditions: zofenopril 0.05 or 1, captopril 5, enalapril 0.5 mg/kg/day; 29 weeks; cited from earlier work
T1 sequence (P09470 35-1312): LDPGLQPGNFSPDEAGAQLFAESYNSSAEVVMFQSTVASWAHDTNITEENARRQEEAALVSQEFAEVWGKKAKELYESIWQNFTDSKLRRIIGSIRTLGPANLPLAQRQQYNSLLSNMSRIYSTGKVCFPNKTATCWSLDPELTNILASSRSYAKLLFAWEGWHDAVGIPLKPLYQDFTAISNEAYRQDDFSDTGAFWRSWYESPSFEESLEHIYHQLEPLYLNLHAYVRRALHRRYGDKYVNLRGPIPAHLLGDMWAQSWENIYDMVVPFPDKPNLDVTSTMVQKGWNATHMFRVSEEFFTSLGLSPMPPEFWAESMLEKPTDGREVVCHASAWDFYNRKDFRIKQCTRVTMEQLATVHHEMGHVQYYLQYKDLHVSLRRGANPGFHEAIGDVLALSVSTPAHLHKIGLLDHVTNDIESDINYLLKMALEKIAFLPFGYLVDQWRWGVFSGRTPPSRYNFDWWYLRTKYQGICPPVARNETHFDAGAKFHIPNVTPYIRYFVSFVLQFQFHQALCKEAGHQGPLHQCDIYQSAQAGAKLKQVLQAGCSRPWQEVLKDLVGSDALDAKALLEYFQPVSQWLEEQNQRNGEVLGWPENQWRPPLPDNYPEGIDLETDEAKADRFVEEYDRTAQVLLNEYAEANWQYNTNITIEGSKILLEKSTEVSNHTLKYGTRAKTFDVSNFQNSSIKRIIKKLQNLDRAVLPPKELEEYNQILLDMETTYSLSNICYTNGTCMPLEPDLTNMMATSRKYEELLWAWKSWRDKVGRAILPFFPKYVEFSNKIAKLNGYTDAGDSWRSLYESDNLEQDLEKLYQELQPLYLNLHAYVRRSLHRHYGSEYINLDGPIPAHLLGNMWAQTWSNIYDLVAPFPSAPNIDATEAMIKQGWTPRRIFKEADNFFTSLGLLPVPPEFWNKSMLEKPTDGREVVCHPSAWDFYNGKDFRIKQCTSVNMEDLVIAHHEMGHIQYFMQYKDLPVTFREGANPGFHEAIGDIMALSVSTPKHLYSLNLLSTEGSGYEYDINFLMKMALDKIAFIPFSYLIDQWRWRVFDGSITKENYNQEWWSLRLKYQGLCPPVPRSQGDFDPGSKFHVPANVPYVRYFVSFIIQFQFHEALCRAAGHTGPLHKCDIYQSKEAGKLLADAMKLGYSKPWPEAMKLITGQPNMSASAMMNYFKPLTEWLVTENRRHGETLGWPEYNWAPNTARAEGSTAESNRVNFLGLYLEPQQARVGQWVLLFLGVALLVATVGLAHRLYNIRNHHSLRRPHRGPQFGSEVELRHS

ACE [11] = biological target: ACE (Homo sapiens, UniProt P12821); parameters: randomly assigned 9,297 high-risk patients; from tissue; host or cells: patients, in vivo; conditions: 5 mg/day, vs placebo; cited from earlier work
ACE (Homo sapiens, UniProt P12821), sequence (P12821 30-1306): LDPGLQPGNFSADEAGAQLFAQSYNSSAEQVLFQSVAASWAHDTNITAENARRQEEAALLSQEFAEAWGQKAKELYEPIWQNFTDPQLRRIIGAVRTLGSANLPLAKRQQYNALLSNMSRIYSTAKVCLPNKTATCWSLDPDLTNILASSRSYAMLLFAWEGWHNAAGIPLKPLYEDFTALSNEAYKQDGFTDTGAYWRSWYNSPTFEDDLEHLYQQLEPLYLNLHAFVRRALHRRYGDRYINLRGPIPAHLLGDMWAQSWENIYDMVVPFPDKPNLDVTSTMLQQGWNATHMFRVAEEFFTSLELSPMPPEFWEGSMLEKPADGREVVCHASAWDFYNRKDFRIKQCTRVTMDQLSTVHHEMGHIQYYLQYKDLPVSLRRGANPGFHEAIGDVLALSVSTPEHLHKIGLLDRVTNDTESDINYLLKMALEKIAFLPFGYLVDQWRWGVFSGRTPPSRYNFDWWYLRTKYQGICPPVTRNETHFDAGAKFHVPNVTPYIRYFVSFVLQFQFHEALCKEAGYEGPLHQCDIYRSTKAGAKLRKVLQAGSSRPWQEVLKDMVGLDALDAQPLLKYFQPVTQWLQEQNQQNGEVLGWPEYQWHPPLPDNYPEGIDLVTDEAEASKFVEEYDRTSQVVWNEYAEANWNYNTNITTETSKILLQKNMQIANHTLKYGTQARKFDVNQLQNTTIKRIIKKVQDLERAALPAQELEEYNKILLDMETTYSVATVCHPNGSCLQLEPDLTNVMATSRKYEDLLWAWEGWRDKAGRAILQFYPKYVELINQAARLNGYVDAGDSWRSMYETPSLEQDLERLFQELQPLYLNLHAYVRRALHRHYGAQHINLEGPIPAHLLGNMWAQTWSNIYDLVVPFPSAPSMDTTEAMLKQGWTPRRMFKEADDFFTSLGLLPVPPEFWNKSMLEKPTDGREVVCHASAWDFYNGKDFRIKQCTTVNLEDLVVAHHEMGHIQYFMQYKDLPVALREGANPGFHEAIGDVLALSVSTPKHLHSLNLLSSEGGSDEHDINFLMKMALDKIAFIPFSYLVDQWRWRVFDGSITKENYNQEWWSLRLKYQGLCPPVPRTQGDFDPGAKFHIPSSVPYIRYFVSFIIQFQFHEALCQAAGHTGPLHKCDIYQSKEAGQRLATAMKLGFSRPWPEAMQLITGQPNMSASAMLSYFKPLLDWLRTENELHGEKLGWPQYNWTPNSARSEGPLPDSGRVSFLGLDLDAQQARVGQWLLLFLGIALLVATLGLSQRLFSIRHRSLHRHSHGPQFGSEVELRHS

[12] = system: LS 174T colon cancer cells; conditions: after the fourth day of treatment; cited from earlier work
metallothionein (MT) [13] = conditions: cited from earlier work
metallothionein (MT) [14] = conditions: cited from earlier work; remark: listed apart in the source
metallothionein (MT) [15] = conditions: non-transformed hepatocytes; cited from earlier work
PFK-2/FBPase-2 = conditions: diabetic animals, up to 15 days; cited from earlier work
[16] = obese Zucker rats; cited from earlier work
[17] = system: obese (fa/fa) Zucker rats; conditions: chronic ICV microinjection; cited from earlier work
[18] = system: genetically obese ob/ob or db/db mice; conditions: low dose injection, for several hours; cited from earlier work
[19] = biological target: T2, long form leptin receptor (Rattus norvegicus, UniProt Q62959); conditions: CHO cells; cited from earlier work
T2 construct: expressed in transfected cells; host or cells: Chinese hamster ovary (CHO) cells
T2 sequence (Q62959 22-1162): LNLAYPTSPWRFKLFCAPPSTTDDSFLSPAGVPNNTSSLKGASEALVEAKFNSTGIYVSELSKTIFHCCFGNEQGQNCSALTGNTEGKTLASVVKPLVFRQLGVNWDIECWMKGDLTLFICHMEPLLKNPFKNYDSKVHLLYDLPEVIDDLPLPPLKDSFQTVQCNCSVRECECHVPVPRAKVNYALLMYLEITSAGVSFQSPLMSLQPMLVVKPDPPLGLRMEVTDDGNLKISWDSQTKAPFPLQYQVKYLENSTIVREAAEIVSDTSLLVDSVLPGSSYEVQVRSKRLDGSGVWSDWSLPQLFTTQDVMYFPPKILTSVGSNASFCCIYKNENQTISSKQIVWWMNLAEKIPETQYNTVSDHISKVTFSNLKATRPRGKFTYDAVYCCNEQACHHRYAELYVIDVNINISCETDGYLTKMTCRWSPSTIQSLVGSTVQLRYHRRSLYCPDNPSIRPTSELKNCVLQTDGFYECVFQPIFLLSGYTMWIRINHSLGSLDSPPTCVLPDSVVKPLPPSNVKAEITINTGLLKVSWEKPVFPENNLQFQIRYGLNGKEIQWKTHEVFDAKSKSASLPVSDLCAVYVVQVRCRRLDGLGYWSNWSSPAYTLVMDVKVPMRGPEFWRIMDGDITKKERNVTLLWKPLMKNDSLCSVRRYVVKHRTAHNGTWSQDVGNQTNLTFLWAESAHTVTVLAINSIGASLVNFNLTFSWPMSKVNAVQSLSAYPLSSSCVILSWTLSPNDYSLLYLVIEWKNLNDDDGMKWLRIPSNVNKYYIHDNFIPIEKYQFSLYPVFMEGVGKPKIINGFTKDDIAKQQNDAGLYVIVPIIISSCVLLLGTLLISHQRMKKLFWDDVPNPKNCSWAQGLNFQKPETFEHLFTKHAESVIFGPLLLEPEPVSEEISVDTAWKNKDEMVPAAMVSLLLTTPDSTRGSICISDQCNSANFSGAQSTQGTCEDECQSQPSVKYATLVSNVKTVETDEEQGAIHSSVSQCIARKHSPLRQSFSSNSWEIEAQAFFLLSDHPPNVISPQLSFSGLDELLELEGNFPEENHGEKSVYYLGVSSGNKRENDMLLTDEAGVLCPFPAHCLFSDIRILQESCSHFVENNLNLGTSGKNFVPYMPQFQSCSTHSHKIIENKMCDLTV

PTP1B = PTP1B (Homo sapiens, UniProt P18031); conditions: Huyer 1997; cited from earlier work
PTP1B, sequence (P18031 whole entry, species assumed): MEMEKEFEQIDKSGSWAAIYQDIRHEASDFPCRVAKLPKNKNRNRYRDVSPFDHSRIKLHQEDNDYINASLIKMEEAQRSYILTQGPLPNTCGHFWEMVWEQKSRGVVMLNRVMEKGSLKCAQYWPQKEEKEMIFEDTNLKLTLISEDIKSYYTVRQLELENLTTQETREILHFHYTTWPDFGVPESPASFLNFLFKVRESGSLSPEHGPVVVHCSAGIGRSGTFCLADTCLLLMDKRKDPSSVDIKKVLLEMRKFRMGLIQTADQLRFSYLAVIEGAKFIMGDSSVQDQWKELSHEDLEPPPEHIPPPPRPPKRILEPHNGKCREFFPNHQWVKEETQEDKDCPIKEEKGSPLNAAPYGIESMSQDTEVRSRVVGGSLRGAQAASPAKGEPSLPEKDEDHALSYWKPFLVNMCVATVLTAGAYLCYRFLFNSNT

Compound: CCCCCC1OC1CC=CCC=CCC=CCCCC(=O)O (stereo not shown) [14,15-EET, 14,15-epoxyeicosatrienoic acid]
- ERK1 and ERK2 phosphorylation (ERK1 and ERK2): stimulated ERK1 and ERK2 phosphorylation

Compound: CCC(=O)O[C@]1(C(=O)SCF)[C@H](C)C[C@H]2[C@@H]3C[C@H](F)C4=CC(=O)C=C[C@]4(C)[C@@]3(F)[C@@H](O)C[C@@]21C [FP, Fluticasone propionate]
- NF-κB activation (NF-κB): decreases NF-κB activation
- number of DC in asthma (DC): decreased the number of DC in asthma
- number of antigen-presenting ‘Langerhans’ cells in nasal mucosa [1]: decreased the number of the antigen-presenting ‘Langerhans’ cells

Compound: CCCCCCCCCCCCCC(=O)O[C@@H]1[C@@H](C)[C@@]2(O)[C@@H](C=C(CO)C[C@]3(O)C(=O)C(C)=C[C@@H]23)[C@@H]2C(C)(C)[C@]12OC(C)=O [TPA, phorbol 12-myristate 13-acetate]
- phosphorylation of ERK1/2 (ERK1/2): phosphorylation of ERK1/2
- DNase-I hypersensitivity of the third intron enhancer of the TNFα gene [2]: enhanced
- increase in ERK activity ([3]; 1 h): 6 fold
- increase in ERK activity ([3]; 3 h): 4 fold
- ML-1 proliferation ([3]; 3-day 0.3 ng/ml, then 3 days without TPA): cease proliferation
- ERK phosphorylation (ERK [4]; Jurkat cells): increased ERK phosphorylation
- Effect on [ERK^phos] (ERK [5]): ↑[ERK^phos]
- mouse AR mRNA (AR gene [6]; Kumar 1998): increase in mouse AR mRNA
- Effect on [mRNAAR] (AR gene [6]; Sertoli, 19 days old rats): ↓[mRNAAR]
- hair growth (anagen hair follicles; 6 days culture, A 23187 2 μM, TPA 1 μM, IL-1 100 ng per ml (Hoffmann 1997)): significantly inhibited hair growth
- IC50 (anagen hair follicles; suspension culture (Harmon 1995), read-out: inhibition of total cumulative hair follicle growth): 1 nM

Compound: Cc1occc(=O)c1[O-].Cc1occc(=O)c1[O-].[O]=[V+2] [bis(maltolato)oxovanadium]
- weight gain [7]: decreased weight gain

Compound: C/C=C/C/C=C/CCC(=O)[C@H]1O[C@H]1C(N)=O [cerulenin]
- virus production [8]: drastically decreased
- virus production (Rous sarcoma virus (RSV)): inhibited

Compound: C[C@@H]1C[C@@H]([C@H](O)CC2CC(=O)NC(=O)C2)C(=O)[C@@H](C)C1 [cycloheximide]
- AGE-alb induced TF mRNA (TF): completely suppressed
- increase in AR mRNA (AR gene [9]): 1.7±0.4 fold
- ERK phosphorylation (ERK [4]; oocytes): decreased ERK phosphorylation

Compound: CCOC(=O)[C@H](CCc1ccccc1)N[C@@H](C)C(=O)N1CCC[C@H]1C(=O)O [enalapril]
- plasma TF antigen level (TF antigen; day 3): 205±14
- plasma TF antigen level (TF antigen; day 28): 169±13
- total lesion area compared to placebo (ACE [10]): no significant decrease in lesion area
- changes in mean absolute diameter, minimum absolute diameter, and percent diameter stenosis (ACE [11]): no significant difference

Compound: CCCC(=O)[O-].[Na+] [sodium butyrate]
- phosphorylation of ERK1/2 (ERK1/2): phosphorylation of ERK1/2
- growth of LS 174T cells [12]: significant growth inhibition
- MT mRNA levels (metallothionein (MT) [13]; OC15 EC, OC15 END cells): increased MT mRNA levels
- increase in MT mRNA (metallothionein (MT) [13]; OC15 carcinoma cells): 20 fold
- MT synthesis (metallothionein (MT) [14]): dose-dependent increase
- increase in MT mRNA (metallothionein (MT) [15]): 2-4 fold

Compound: [O]=[V]([O-])([O-])[O-] [vanadate, Vanadate (VO4^−3)]
- ERK activation (ERK [4]; as general PTP inhibitors): activate ERK
- liver PFK-2/FBPase-2 mRNA content (PFK-2/FBPase-2): progressive increase
- decrease in plasma glucose [16]: 36%
- decrease in plasma insulin [16]: 80%

Compound: IL-1β: human recombinant IL-1β, an ERK agent
- decrease in nighttime food intake [17]: 66.1%
- glucose blood levels [18]: normalization of glucose blood levels
- growth of isolated scalp hair (anagen hair follicles; Xiong 1997): growth inhibition

Compound: leptin: an ERK agent that binds the long form leptin receptor
- tyrosine phosphorylation of STAT3 and ERK [19]: increased tyrosine phosphorylation of STAT3 and ERK

Compound: pervanadate
- PTP1B activity (PTP1B): inhibition
